{"source": "paper PMC10041525", "about": "“New Dual Inhibitors of Bacterial Topoisomerases with Broad-Spectrum Antibacterial Activity and In Vivo Efficacy against Vancomycin-Intermediate Staphylococcus aureus” (Journal of Medicinal Chemistry, 2023)", "key": {"[1]": {"test_system": "S. pneumoniae ATCC 49619", "set-up": "method as in earlier work", "details": "QC range for S. pneumoniae ATCC 49619, ref CLSI; cited from earlier work"}, "[2]": {"test_system": "E. faecalis ATCC 29212", "set-up": "method as in earlier work", "details": "QC range for E. faecalis ATCC 29212, ref CLSI; cited from earlier work"}, "[3]": {"test_system": "H. influenzae ATCC 49766", "test": "IHMA QC MIC", "format": "cell-based", "source_text": "(§1) Supplement jm2c01905_si_004.xlsx, sheet \"QC\" | column: MIC [µg/mL]"}, "[4]": {"test_system": "E. faecalis ATCC 29212", "test": "IHMA QC MIC", "format": "cell-based", "source_text": "as §1"}, "[5]": {"test_system": "H. influenzae ATCC 49247", "test": "IHMA QC MIC", "format": "cell-based", "source_text": "as §1"}, "[6]": {"test_system": "S. pneumoniae ATCC 49619", "test": "IHMA QC MIC", "format": "cell-based", "source_text": "as §1"}, "[7]": {"test_system": "S. pneumoniae (n = 12)", "test": "MIC broth microdilution at IHMA Europe", "format": "cell-based", "details": "for MIC: Streptococcus pneumoniae"}, "[8]": {"test_system": "E. coli ATCC 25922", "test": "IHMA QC MIC", "format": "cell-based"}, "[9]": {"test_system": "E. faecium (n = 13)", "test": "MIC broth microdilution at IHMA Europe", "format": "cell-based", "details": "Enterococcus faecium"}, "[10]": {"test_system": "Haemophilus influenzae (n = 14)", "test": "MIC broth microdilution at IHMA Europe", "format": "cell-based, H. influenzae", "details": "for MIC: Haemophilus influenzae"}, "[11]": {"test_system": "P. aeruginosa ATCC 27853", "test": "IHMA QC MIC", "format": "cell-based"}, "[12]": {"test_system": "S. aureus (MRSA) ATCC 43300", "test": "MIC broth microdilution (CLSI)", "format": "cell-based", "details": "Staphylococcus aureus", "summary_of_the_method": "(§2)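 Serial twofold broth microdilution per CLSI in cation-adjusted Mueller Hinton broth 2, with 5 × 10^4 bacterial cells per well in 100 μL. Plates were shaken at 150 rpm, 37 °C, for 18 h, then read at OD600. MIC was the concentration where the mean OD600 increment of triplicates stayed below 1.5-fold background.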"}, "[13]": {"test_system": "S. aureus (VISA) ATCC 700699", "test": "MIC broth microdilution (CLSI)", "format": "cell-based", "details": "Staphylococcus aureus; read-out: MIC", "summary_of_the_method": "as §2"}, "[14]": {"target": "A. baumannii DNA gyrase (Acinetobacter baumannii, UniProt A0ABX6CA01)", "sequence (A0ABX6CA01 1-822)": "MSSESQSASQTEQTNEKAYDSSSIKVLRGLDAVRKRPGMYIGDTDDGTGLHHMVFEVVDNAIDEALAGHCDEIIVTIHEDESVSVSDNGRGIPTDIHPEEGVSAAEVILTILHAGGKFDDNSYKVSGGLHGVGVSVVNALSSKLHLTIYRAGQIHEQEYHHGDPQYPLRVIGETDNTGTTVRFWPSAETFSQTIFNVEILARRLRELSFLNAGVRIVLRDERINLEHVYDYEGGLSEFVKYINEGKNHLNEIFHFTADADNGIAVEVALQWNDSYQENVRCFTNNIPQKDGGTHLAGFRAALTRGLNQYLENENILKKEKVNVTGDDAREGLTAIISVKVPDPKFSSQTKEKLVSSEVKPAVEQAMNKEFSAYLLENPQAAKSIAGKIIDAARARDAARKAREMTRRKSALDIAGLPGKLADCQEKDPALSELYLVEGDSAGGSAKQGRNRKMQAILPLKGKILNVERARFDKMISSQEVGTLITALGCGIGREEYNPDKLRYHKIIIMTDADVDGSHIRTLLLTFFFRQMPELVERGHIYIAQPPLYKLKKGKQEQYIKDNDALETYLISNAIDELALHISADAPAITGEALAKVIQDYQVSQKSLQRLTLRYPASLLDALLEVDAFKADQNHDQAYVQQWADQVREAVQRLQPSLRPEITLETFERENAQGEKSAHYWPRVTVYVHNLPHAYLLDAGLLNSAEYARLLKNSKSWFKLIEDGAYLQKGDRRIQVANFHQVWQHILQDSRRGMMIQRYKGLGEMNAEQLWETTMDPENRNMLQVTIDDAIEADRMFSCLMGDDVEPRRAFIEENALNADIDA", "sequence (A0ABX6CII0 1-904 partner)": "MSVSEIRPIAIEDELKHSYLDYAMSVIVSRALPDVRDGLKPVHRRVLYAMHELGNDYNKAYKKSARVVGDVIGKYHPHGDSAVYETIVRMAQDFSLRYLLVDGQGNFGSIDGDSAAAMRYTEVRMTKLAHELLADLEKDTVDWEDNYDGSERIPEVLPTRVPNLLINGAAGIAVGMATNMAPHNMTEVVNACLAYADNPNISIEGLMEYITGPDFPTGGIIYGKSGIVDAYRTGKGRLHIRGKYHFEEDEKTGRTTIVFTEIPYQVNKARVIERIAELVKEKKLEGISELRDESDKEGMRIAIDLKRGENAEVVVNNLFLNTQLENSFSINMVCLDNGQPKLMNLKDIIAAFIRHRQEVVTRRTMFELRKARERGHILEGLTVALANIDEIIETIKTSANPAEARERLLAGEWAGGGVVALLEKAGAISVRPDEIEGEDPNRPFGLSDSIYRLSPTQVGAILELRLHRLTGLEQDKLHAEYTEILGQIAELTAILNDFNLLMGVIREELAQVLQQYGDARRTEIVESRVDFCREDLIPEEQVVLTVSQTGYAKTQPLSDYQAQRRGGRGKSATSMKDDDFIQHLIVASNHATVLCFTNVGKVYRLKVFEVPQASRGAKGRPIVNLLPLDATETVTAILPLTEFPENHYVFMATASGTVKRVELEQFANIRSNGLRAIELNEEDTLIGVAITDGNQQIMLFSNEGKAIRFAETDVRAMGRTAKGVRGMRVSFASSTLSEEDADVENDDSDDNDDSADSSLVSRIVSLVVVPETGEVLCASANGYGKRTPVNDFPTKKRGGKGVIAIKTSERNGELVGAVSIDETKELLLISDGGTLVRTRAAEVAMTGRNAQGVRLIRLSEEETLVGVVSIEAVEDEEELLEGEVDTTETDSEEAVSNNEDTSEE", "test": "gel-based supercoiling assay", "format": "biochemical"}}, "note": "Where “and” joins values, the source holds several entries; their conditions need not be identical. Equal entries are not always repeated. Where two headings read alike, the source gives them in different places."}
{"compound": "CN[C@H](CC(C)C)C(=O)N[C@H]1C(=O)N[C@@H](CC(N)=O)C(=O)N[C@H]2C(=O)N[C@H]3C(=O)N[C@H](C(=O)N[C@H](C(=O)O)c4cc(O)cc(O)c4-c4cc3ccc4O)[C@H](O)c3ccc(c(Cl)c3)Oc3cc2cc(c3O[C@@H]2O[C@H](CO)[C@@H](O)[C@H](O)[C@H]2O[C@H]2C[C@](C)(N)[C@H](O)[C@H](C)O2)Oc2ccc(cc2Cl)[C@H]1O", "note": "[Vancomycin, vancomycin]", "values": [{"measurement": "MIC, CLSI Range", "setting": "[1]", "value": "0,12 - 0,5 µg/mL"}, {"measurement": "MIC, CLSI Range", "setting": "[2]", "value": "1 to 4", "unit": "µg/mL"}, {"measurement": "MIC", "setting": "[3]; Haemophilus influenzae, ATCC49766", "value": "> 32", "unit": "µg/mL"}, {"measurement": "MIC", "setting": "[3]; QC strain H. influenzae ATCC 49766, test date 2021-11-26", "value": ">32", "unit": "µg/mL"}, {"measurement": "MIC", "setting": "[4]; Enterococcus faecalis, ATCC29212", "value": 2, "unit": "µg/mL"}, {"measurement": "MIC", "setting": "[4]; QC strain E. faecalis ATCC 29212, test date 2021-11-26", "value": 2, "unit": "µg/mL"}, {"measurement": "MIC", "setting": "[5]; Haemophilus influenzae, ATCC49247", "value": "> 32", "unit": "µg/mL"}, {"measurement": "MIC", "setting": "[5]; QC strain H. influenzae ATCC 49247, test date 2021-11-26", "value": ">32", "unit": "µg/mL"}, {"measurement": "MIC", "setting": "[6]; QC strain S. pneumoniae ATCC 49619, test date 2021-11-26", "value": 0.12, "unit": "µg/mL"}, {"measurement": "MIC", "setting": "[6]; Streptococcus pneumoniae, ATCC49619", "value": 0.12, "unit": "µg/mL"}, {"measurement": "No. of isolates at MIC", "setting": "[7]", "value": "5 and 6"}, {"measurement": "Cumulative % at MIC", "setting": "[7]; MIC 1 µg/mL", "value": 100.0, "unit": "%"}, {"measurement": "No. of isolates at MIC", "setting": "[7]; MIC 1 µg/mL", "value": 1}, {"measurement": "MIC", "setting": "[7]; S. pneumoniae IHMA N° 1775387", "value": 0.25, "unit": "µg/mL"}, {"measurement": "MIC", "setting": "[7]; S. pneumoniae IHMA N° 1776057", "value": 0.25, "unit": "µg/mL"}, {"measurement": "MIC", "setting": "[7]; S. pneumoniae IHMA N° 1785617", "value": 0.12, "unit": "µg/mL"}, {"measurement": "MIC", "setting": "[7]; S. pneumoniae IHMA N° 1800765", "value": 0.12, "unit": "µg/mL"}, {"measurement": "MIC", "setting": "[7]; S. pneumoniae IHMA N° 1811259", "value": 0.12, "unit": "µg/mL"}, {"measurement": "MIC", "setting": "[7]; S. pneumoniae IHMA N° 1831562", "value": 0.25, "unit": "µg/mL"}, {"measurement": "MIC", "setting": "[7]; S. pneumoniae IHMA N° 1902609", "value": 0.25, "unit": "µg/mL"}, {"measurement": "MIC", "setting": "[7]; S. pneumoniae IHMA N° 1979675", "value": 0.25, "unit": "µg/mL"}, {"measurement": "MIC", "setting": "[7]; S. pneumoniae IHMA N° 1991963", "value": 1, "unit": "µg/mL"}, {"measurement": "MIC", "setting": "[7]; S. pneumoniae IHMA N° 2057487", "value": 0.12, "unit": "µg/mL"}, {"measurement": "MIC", "setting": "[7]; S. pneumoniae IHMA N° 2073087", "value": 0.25, "unit": "µg/mL"}, {"measurement": "MIC", "setting": "[7]; S. pneumoniae IHMA N° 2117109", "value": 0.12, "unit": "µg/mL"}, {"measurement": "MIC", "setting": "[8]; Escherichia coli, ATCC25922", "value": "> 32", "unit": "µg/mL"}, {"measurement": "MIC", "setting": "[8]; QC strain E. coli ATCC 25922, test date 2021-11-26", "value": ">32", "unit": "µg/mL"}, {"measurement": "MIC", "setting": "[9]; E. faecium IHMA N° 1764866", "value": 16, "unit": "µg/mL"}, {"measurement": "MIC", "setting": "[9]; E. faecium IHMA N° 1765436", "value": 16, "unit": "µg/mL"}, {"measurement": "MIC", "setting": "[9]; E. faecium IHMA N° 1765746", "value": "> 32", "unit": "µg/mL"}, {"measurement": "MIC", "setting": "[9]; E. faecium IHMA N° 1893573", "value": 32, "unit": "µg/mL"}, {"measurement": "MIC", "setting": "[9]; E. faecium IHMA N° 1893846", "value": "> 32", "unit": "µg/mL"}, {"measurement": "MIC", "setting": "[9]; E. faecium IHMA N° 1893942", "value": 32, "unit": "µg/mL"}, {"measurement": "MIC", "setting": "[9]; E. faecium IHMA N° 1894055", "value": "> 32", "unit": "µg/mL"}, {"measurement": "MIC", "setting": "[9]; E. faecium IHMA N° 1897027", "value": "> 32", "unit": "µg/mL"}, {"measurement": "MIC", "setting": "[9]; E. faecium IHMA N° 1897101", "value": "> 32", "unit": "µg/mL"}, {"measurement": "MIC", "setting": "[9]; E. faecium IHMA N° 1904592", "value": "> 32", "unit": "µg/mL"}, {"measurement": "MIC", "setting": "[9]; E. faecium IHMA N° 2075051", "value": 16, "unit": "µg/mL"}, {"measurement": "MIC", "setting": "[9]; E. faecium IHMA N° 2077718", "value": "> 32", "unit": "µg/mL"}, {"measurement": "MIC", "setting": "[9]; E. faecium IHMA N° 2083787", "value": "> 32", "unit": "µg/mL"}, {"measurement": "No. of isolates at MIC", "setting": "[10]", "value": "5 and 9"}, {"measurement": "MIC", "setting": "[10]; H. influenzae IHMA N° 1227715", "value": "> 32", "unit": "µg/mL"}, {"measurement": "MIC", "setting": "[10]; H. influenzae IHMA N° 1241620", "value": "> 32", "unit": "µg/mL"}, {"measurement": "MIC", "setting": "[10]; H. influenzae IHMA N° 1244149", "value": 32, "unit": "µg/mL"}, {"measurement": "MIC", "setting": "[10]; H. influenzae IHMA N° 1249803", "value": "> 32", "unit": "µg/mL"}, {"measurement": "MIC", "setting": "[10]; H. influenzae IHMA N° 1254355", "value": 32, "unit": "µg/mL"}, {"measurement": "MIC", "setting": "[10]; H. influenzae IHMA N° 1258580", "value": "> 32", "unit": "µg/mL"}, {"measurement": "MIC", "setting": "[10]; H. influenzae IHMA N° 1262734", "value": 32, "unit": "µg/mL"}, {"measurement": "MIC", "setting": "[10]; H. influenzae IHMA N° 1272723", "value": "> 32", "unit": "µg/mL"}, {"measurement": "MIC", "setting": "[10]; H. influenzae IHMA N° 1286846", "value": "> 32", "unit": "µg/mL"}, {"measurement": "MIC", "setting": "[10]; H. influenzae IHMA N° 1337530", "value": "> 32", "unit": "µg/mL"}, {"measurement": "MIC", "setting": "[10]; H. influenzae IHMA N° 1440085", "value": "> 32", "unit": "µg/mL"}, {"measurement": "MIC", "setting": "[10]; H. influenzae IHMA N° 1479509", "value": 32, "unit": "µg/mL"}, {"measurement": "MIC", "setting": "[10]; H. influenzae IHMA N° 1952952", "value": "> 32", "unit": "µg/mL"}, {"measurement": "MIC", "setting": "[10]; H. influenzae IHMA N° 2047461", "value": 32, "unit": "µg/mL"}, {"measurement": "MIC", "setting": "[11]; Pseudomonas aeruginosa, ATCC27853", "value": "> 32", "unit": "µg/mL"}, {"measurement": "MIC", "setting": "[11]; QC strain P. aeruginosa ATCC 27853, test date 2021-11-26", "value": ">32", "unit": "µg/mL"}]}
{"compound": "CO[C@@H]1[C@@H](OC(N)=O)[C@@H](O)[C@H](Oc2ccc3c(O)c(NC(=O)c4ccc(O)c(CC=C(C)C)c4)c(=O)oc3c2C)OC1(C)C", "note": "[novobiocin]", "values": [{"measurement": "MIC", "setting": "[12]", "value": 0.125, "unit": "µg/mL"}, {"measurement": "MIC", "setting": "[13]", "value": 0.0312, "unit": "µg/mL"}, {"measurement": "IC50", "setting": "[14]", "value": "2.17 ± 0.16", "unit": "nM"}]}
